Data published in the supplement of paper PMC10307832.

Assays:
Assay in all cases: relative viability (nuclei count vs DMSO), 5 days (fraction); higher = more cells survive
OSI-027 + Alpelisib = compound: COc1cccc2cc(-c3nc([C@H]4CC[C@H](C(=O)O)CC4)n4ncnc(N)c34)[nH]c12 [OSI-027] + Cc1nc(NC(=O)N2CCC[C@H]2C(N)=O)sc1-c1ccnc(C(C)(C)C(F)(F)F)c1 [Alpelisib] (partner 2 µM)
Procedure, shortened: (§1)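 Relative viability divides the nuclei count in treated wells by that in vehicle wells. Lung cancer cell lines were seeded in 1536-well plates, dosed by pin tool the next day, and fixed and stained after 5 days in one step with final 0.05% Triton X-100, 1% formaldehyde and 1 ug/ml Hoechst. Dosing was a single drug or a fixed anchor-drug dose plus five library-drug doses (not always all listed) in √10 steps, and values are medians of duplicate plates imaged at 4×.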

OSI-027 + Trametinib = compound: COc1cccc2cc(-c3nc([C@H]4CC[C@H](C(=O)O)CC4)n4ncnc(N)c34)[nH]c12 [OSI-027] + CC(=O)Nc1cccc(-n2c(=O)n(C3CC3)c(=O)c3c(Nc4ccc(I)cc4F)n(C)c(=O)c(C)c32)c1 [Trametinib] (partner 0.02 µM)
Procedure, shortened: as §1

Alpelisib + Trametinib = compound: Cc1nc(NC(=O)N2CCC[C@H]2C(N)=O)sc1-c1ccnc(C(C)(C)C(F)(F)F)c1 [Alpelisib] + CC(=O)Nc1cccc(-n2c(=O)n(C3CC3)c(=O)c3c(Nc4ccc(I)cc4F)n(C)c(=O)c(C)c32)c1 [Trametinib] (partner 0.02 µM)
Procedure, shortened: as §1

Alpelisib + Palbociclib = compound: Cc1nc(NC(=O)N2CCC[C@H]2C(N)=O)sc1-c1ccnc(C(C)(C)C(F)(F)F)c1 [Alpelisib] + CC(=O)c1c(C)c2cnc(Nc3ccc(N4CCNCC4)cn3)nc2n(C2CCCC2)c1=O [Palbociclib] (partner 0.5 µM)
Procedure, shortened: as §1

Cell Line | relative viability (OSI-027 + Alpelisib; first compound 0.01 µM) | relative viability (OSI-027 + Alpelisib; first compound 0.03162 µM) | relative viability (OSI-027 + Alpelisib; first compound 0.1 µM) | relative viability (OSI-027 + Alpelisib; first compound 0.3162 µM) | relative viability (OSI-027 + Alpelisib; first compound 1 µM) | relative viability (OSI-027 + Trametinib; first compound 0.01 µM) | relative viability (OSI-027 + Trametinib; first compound 0.03162 µM) | relative viability (OSI-027 + Trametinib; first compound 0.1 µM) | relative viability (OSI-027 + Trametinib; first compound 0.3162 µM) | relative viability (OSI-027 + Trametinib; first compound 1 µM) | relative viability (Alpelisib + Trametinib; first compound 0.04 µM) | relative viability (Alpelisib + Trametinib; first compound 0.1265 µM) | relative viability (Alpelisib + Trametinib; first compound 0.4 µM) | relative viability (Alpelisib + Trametinib; first compound 1.265 µM) | relative viability (Alpelisib + Trametinib; first compound 4 µM) | relative viability (Alpelisib + Palbociclib; first compound 0.04 µM) | relative viability (Alpelisib + Palbociclib; first compound 0.1265 µM) | relative viability (Alpelisib + Palbociclib; first compound 0.4 µM) | relative viability (Alpelisib + Palbociclib; first compound 1.265 µM) | relative viability (Alpelisib + Palbociclib; first compound 4 µM)
LOU-NH91 | 0.692 | 0.689 | 0.616 | 0.558 | 0.47 | 0.766 | 0.785 | 0.66 | 0.591 | 0.579 | 0.773 | 0.686 | 0.696 | 0.649 | 0.591 | 0.586 | 0.511 | 0.547 | 0.511 | 0.496
LU99A | 0.486 | 0.455 | 0.312 | 0.193 | 0.204 | 0.581 | 0.508 | 0.424 | 0.342 | 0.209 | 0.573 | 0.558 | 0.599 | 0.425 | 0.386 | 0.374 | 0.379 | 0.363 | 0.259 | 0.22
LXF-289 | 1.05 | 1.05 | 0.991 | 0.909 | 0.496 | 0.681 | 0.707 | 0.752 | 0.612 | 0.357 | 0.632 | 0.632 | 0.71 | 0.609 | 0.694 | 0.55 | 0.562 | 0.653 | 0.534 | 0.604
NCI-H522 | – | – | – | – | – | 0.691 | 0.709 | 0.725 | 0.632 | 0.463 | 0.673 | 0.756 | 0.683 | 0.681 | 0.542 | 0.993 | 0.752 | 0.87 | 0.944 | 0.657
NCI-H596 | 0.432 | 0.534 | 0.503 | 0.503 | 0.354 | 0.738 | 0.792 | 0.914 | 0.758 | 0.538 | 0.801 | 0.815 | 0.708 | 0.48 | 0.44 | – | – | – | – | –
NCI-H1299 | 1.11 | 1.05 | 1.12 | 1.08 | 0.786 | – | – | – | – | – | – | – | – | – | – | – | – | – | – | –
NCI-H1563 | 0.983 | 0.888 | 0.82 | 0.673 | 0.759 | – | – | – | – | – | – | – | – | – | – | – | – | – | – | –
NCI-H1648 | – | – | – | – | – | 0.481 | 0.449 | – | 0.49 | 0.321 | 0.489 | 0.496 | 0.472 | 0.296 | 0.245 | 0.259 | 0.304 | 0.241 | 0.234 | 0.237
NCI-H1650 | – | – | – | – | – | 0.485 | 0.504 | 0.614 | 0.6 | 0.408 | 0.688 | 0.487 | 0.638 | 0.505 | 0.544 | 0.423 | 0.275 | 0.403 | 0.29 | 0.298
NCI-H1703 | 0.32 | 0.285 | 0.284 | 0.279 | 0.238 | – | – | – | – | – | – | – | – | – | – | – | – | – | – | –
NCI-H2342 | – | – | – | – | – | 0.802 | 0.816 | 0.724 | 0.687 | 0.556 | 0.754 | 0.854 | 0.671 | 0.604 | 0.67 | 0.57 | 0.509 | 0.518 | 0.467 | 0.414
SW 900 | – | – | – | – | – | 0.933 | 0.866 | 0.789 | 0.712 | 0.608 | 0.733 | – | 1.11 | 0.761 | 0.745 | 0.536 | – | 0.706 | 0.483 | 0.49
